In ChEMBL document CHEMBL4619714, “Amino acid prodrugs of NVR3-778: Design, synthesis and anti-HBV activity” (Bioorg Med Chem Lett, 2020):
≈ marks a conversion by molar mass, not a printed value. Blank lines part the entries; values can stand above or below the compound they belong to.

Columns and labels:
[1] = Cytotoxicity against human HepG2.2.15 cells; type: cell-based, HepG2 2.2.15
[2] = Selectivity index, ratio of CC50 for human HepG2.2.15 cells to IC50 for Hepatitis B virus; type: toxicity; conditions: read-out: Ratio CC50/IC50
Hepatitis B virus [3] = assay: Antiviral activity against Hepatitis B virus infected in human HepG2.2.15 cells by solid phase radioimmunoassay; type: functional, organism-based; conditions: HepG2 2.2.15
[4] = AUC (0 to t) in ICR mouse assessed as 4-fluoro-3-[(4-hydroxy-1-piperidyl)sulfonyl]-N-(3,4,5-trifluorophenyl)benzamide level at 50 mg/kg, po; type: ADME, organism-based; conditions: in vivo
[5] = Cmax in ICR mouse assessed as 4-fluoro-3-[(4-hydroxy-1-piperidyl)sulfonyl]-N-(3,4,5-trifluorophenyl)benzamide level at 50 mg/kg, po; type: ADME, organism-based; set-up: dose 50 mg/kg, route oral; conditions: in vivo
[6] = Tmax in ICR mouse assessed as 4-fluoro-3-[(4-hydroxy-1-piperidyl)sulfonyl]-N-(3,4,5-trifluorophenyl)benzamide level at 50 mg/kg, po; type: ADME, organism-based; conditions: in vivo
Hepatitis B virus [7] = assay: Antiviral activity against Hepatitis B virus infected in orally dosed C57BL/6 mouse assessed as reduction in viral DNA administered bid for daily and measured upto 6 days by qRT-PCR analysis; type: functional, organism-based
[8] = MRT in ICR mouse at 50 mg/kg, po; type: ADME, organism-based; conditions: in vivo
[9] = AUC (0 to t) in ICR mouse at 50 mg/kg, po; type: ADME, organism-based; conditions: in vivo
[10] = Tmax in ICR mouse at 50 mg/kg, po; type: ADME, organism-based; conditions: in vivo
Hepatitis B virus [11] = assay: Antiviral activity against Hepatitis B virus infected in C57BL/6 mouse assessed as reduction in viral DNA at 0.93 mmol/kg, po administered bid and measured on day 4 by qRT-PCR analysis; type: functional
Hepatitis B virus [12] = assay: Antiviral activity against Hepatitis B virus infected in C57BL/6 mouse assessed as reduction in viral DNA at 0.93 mmol/kg, po administered bid and measured on day 2 by qRT-PCR analysis; type: functional
[13] = Half life in ICR mouse at 50 mg/kg, po; type: ADME, organism-based; conditions: in vivo
[14] = Half life in ICR mouse assessed as 4-fluoro-3-[(4-hydroxy-1-piperidyl)sulfonyl]-N-(3,4,5-trifluorophenyl)benzamide level at 50 mg/kg, po; type: ADME, organism-based; conditions: in vivo
[15] = Solubility of compound assessed as 4-fluoro-3-[(4-hydroxy-1-piperidyl)sulfonyl]-N-(3,4,5-trifluorophenyl)benzamide level at pH 2; type: physicochemical; conditions: buffer
[16] = Toxicity in C57BL/6 mouse infected with Hepatitis B virus assessed as reduction in body weight at 0.23 and 0.93 mmol/kg, po administered bid and observed for 6 days; type: organism-based; conditions: in vivo, 144 h
[17] = MRT in ICR mouse assessed as 4-fluoro-3-[(4-hydroxy-1-piperidyl)sulfonyl]-N-(3,4,5-trifluorophenyl)benzamide level at 50 mg/kg, po; type: ADME, organism-based; conditions: in vivo
[18] = Cmax in ICR mouse at 50 mg/kg, po; type: ADME, organism-based; set-up: dose 50 mg/kg, route oral; conditions: in vivo
[19] = Solubility of compound at pH 2 by HPLC-UV analysis; type: physicochemical; conditions: buffer
[20] = Toxicity in C57BL/6 mouse infected with Hepatitis B virus assessed as reduction in body weight at 0.93 mmol/kg, po administered bid and observed for 6 days; type: organism-based; conditions: in vivo, 144 h
Hepatitis B virus [21] = assay: Antiviral activity against Hepatitis B virus infected in C57BL/6 mouse assessed as reduction in viral DNA at 0.1 mg/kg, po measured upto 6 days by qRT-PCR analysis; type: functional

IC50 (Hepatitis B virus [3]): 280 nM
Compound: C[C@H](N)C(=O)OC1CCN(S(=O)(=O)c2cc(C(=O)Nc3cc(F)c(F)c(F)c3)ccc2F)CC1
CC50 [1]: 4810 nM | selectivity ratio [2]: 17.2

IC50 (Hepatitis B virus [3]): 280 nM
Compound: CC(C)C[C@H](N)C(=O)OC1CCN(S(=O)(=O)c2cc(C(=O)Nc3cc(F)c(F)c(F)c3)ccc2F)CC1
CC50 [1]: 5770 nM | selectivity ratio [2]: 20.6

IC50 (Hepatitis B virus [3]): 1400 nM
Compound: NCC(=O)OC1CCN(S(=O)(=O)c2cc(C(=O)Nc3cc(F)c(F)c(F)c3)ccc2F)CC1
CC50 [1]: > 10000 nM | selectivity ratio [2]: > 7.1

AUCt [4]: 258.9 µg·h/mL | Cmax [5]: 45170 ng/mL | Tmax [6]: 0.5 h | MRT [8]: 0.97 h | AUC(0-t) [9]: 6.65 µg·h/mL | Tmax [10]: 0.25 h | half-life [13]: 1.23 h | t1/2 [14]: 3.53 h | solubility [15]: 700 µg/mL (≈ 1320 µM) | IC50 (Hepatitis B virus [3]): 340 nM | MRT [17]: 4.66 h | Cmax [18]: 11500 ng/mL
Compound: CC(C)[C@H](N)C(=O)OC1CCN(S(=O)(=O)c2cc(C(=O)Nc3cc(F)c(F)c(F)c3)ccc2F)CC1
Activity (Hepatitis B virus [7]): Dose-dependent effect | Activity (Hepatitis B virus [11]): 0.67 log10IU/ml | CC50 [1]: > 10000 nM | Activity (Hepatitis B virus [12]): 0.75 log10IU/ml | selectivity ratio [2]: > 29.4 | Activity [16]: Non-Toxic

IC50 (Hepatitis B virus [3]): 350 nM
Compound: N[C@@H](Cc1ccccc1)C(=O)OC1CCN(S(=O)(=O)c2cc(C(=O)Nc3cc(F)c(F)c(F)c3)ccc2F)CC1
CC50 [1]: > 10000 nM | selectivity ratio [2]: > 28.6

MRT [8]: 10.7 h | AUC(0-t) [9]: 456 µg·h/mL | Tmax [10]: 1.08 h | half-life [13]: 8.14 h | solubility [19]: 3 µg/mL (≈ 6.94 µM) | IC50 (Hepatitis B virus [3]): 260 nM | Cmax [18]: 66100 ng/mL
Compound: O=C(Nc1cc(F)c(F)c(F)c1)c1ccc(F)c(S(=O)(=O)N2CCC(O)CC2)c1
Activity (Hepatitis B virus [11]): 0.6 log10IU/ml | CC50 [1]: 4810 nM | Activity (Hepatitis B virus [12]): 0.53 log10IU/ml | selectivity ratio [2]: 18.5 | Activity [20]: Non-Toxic

Compound: C=C1[C@H](CO)[C@@H](O)C[C@@H]1n1cnc2c(=O)[nH]c(N)nc21.O [ENTECAVIR]
Activity (Hepatitis B virus [21]): 1.67 log10IU/ml

IC50 (Hepatitis B virus [3]): 380 nM
Compound: CCC(C)[C@H](N)C(=O)OC1CCN(S(=O)(=O)c2cc(C(=O)Nc3cc(F)c(F)c(F)c3)ccc2F)CC1 (some centres undefined)
CC50 [1]: > 10000 nM | selectivity ratio [2]: > 26.3

IC50 (Hepatitis B virus [3]): 560 nM
Compound: CC(C)(C)[C@H](N)C(=O)OC1CCN(S(=O)(=O)c2cc(C(=O)Nc3cc(F)c(F)c(F)c3)ccc2F)CC1
CC50 [1]: > 10000 nM | selectivity ratio [2]: > 17.9
